SMILES strings stand for the structures.

Melting point data for 85 compounds are collected here from a melting point compilation (Tetko et al.; mined from patent text by program, amines drawn as free bases though some values may be those of a salt).

As a reminder, the melting point is the temperature, or range, at which the solid turns liquid. For `O=C1CCCc2c(-c3ccccc3)[nH]c(-c3ccncc3)c21`, the melting point is 254 to 255 °C. Regarding `C[C@H]1C[C@@H](Nc2ccccc2)c2ccccc2N1C(=O)c1ccccn1` (relative stereo), the melting point is 157 °C. For `N#CN=C(Nc1ccc([N+](=O)[O-])cc1O)Nc1ccccc1Cl` the value was 163 to 164 °C. For `Cc1oc(-c2ccc(C(N)=O)cc2)nc1CCOc1ccc(OC(C)(C)C(=O)O)cc1` the value was 126 to 127 °C; for `CCOC(=O)C(COC(=O)COc1ccc(NC(=O)c2ccccc2-c2ccc(C(F)(F)F)cc2)c(C(=O)N(C)C)c1)(C(=O)OCC)c1ccccc1`, 132 to 138 °C; for `CC(C)CCNC1=NS(=O)(=O)c2sc(Cl)cc2N1`, 230 to 232 °C. `CCOC(=O)c1c(C)nc(N2CCN(C)CC2)c([N+](=O)[O-])c1Cl` showed a melting point of 59 to 61 °C. For `CC1CCc2cc(C3=NNC(=O)C4CC34)ccc2NC1=O` (stereo not given) the value was 305 to 307 °C; for `COC(=O)c1c(-c2ccccc2F)c2cc(OCc3ccccc3)ccc2c(=O)n1CC(C)C`, 106 to 107 °C. `CC(=O)N(CC(C)O)c1c(C)cccc1C` (stereo not given) gave a melting point of 64 to 67 °C.

`CC(=O)Nc1ccc(OC2SCC(OC(C)=O)C(OC(C)=O)C2OC(C)=O)cc1` (stereo not given) gave a melting point of 166 °C. With `CCCCCCS(=O)(=O)Oc1c(I)cc(I)cc1I` the figure was 70 to 71 °C.

Turning to `N#Cc1ccc(-c2cc(-c3ccc(O)c(F)c3)nc3ccc(O)cc23)cc1`, the melting point was in the range of 266 to 267 °C. With `CO[C@]1(c2cccc(OCc3ccc4c(ccc(=O)n4C)c3)c2)CCOC[C@H]1O` (racemic) the figure was 62 to 66 °C; with `O=C(NCc1ncc(C(F)(F)F)cc1Cl)c1c(Cl)nc2c(c1Cl)CCCC2`, 48 to 50 °C; with `CCOC(=O)c1cnc2cc(OC)c(OC)cc2c1`, above 300 °C. For `CCN1CCC2(c3cccc(O)c3)CC(Cc3ccccc3)=CCC2C1` (stereo not given) the value was 160 to 162 °C.

`C=CCOc1nc(N(CC)Cc2cc(Br)ccc2OCc2ccccc2)ccc1C(=O)O` displayed a melting point of 129 to 131 °C. Regarding `Cc1ccc(O)c(F)n1`, the melting point was in the range of 133 to 135 °C. For `CCOC(=O)[C@H](CCC1CCCCC1)N[C@@H]1COc2ccccc2N(Cc2ccc(C(C)C)cc2)C1=O` the value was 80 °C; for `CCOC(=O)COC1CCC2C3CCC4N(C)C(=O)CCC4(C)C3CCC12C` (stereo not given), 39 to 41 °C; for `CC(=O)OCC(=O)C1C(C)CC2C3C=C(Cl)C4=CC(=O)C=CC4(C)C3C(O)CC21C` (stereo not given), 192 °C. For `Cc1oc(-c2ccccc2)nc1COc1cc(COc2ncccc2C=O)on1` the value was 90 to 91 °C.

As for `COc1cc2[nH]cc(-c3cc4c(Cl)c(F)cnc4[nH]3)c2nc1OC`, the melting point fell in the range of 283 to 284 °C. With `CC(=O)OC1C=C(C)C(=O)CC(C)(C)C1OC(C)=O` (stereo not given) the figure was 68 to 69 °C; with `COC(=O)Cc1ccc(C(=O)O)cc1`, 134 to 136 °C; with `COc1cc2nc(N)nc(-c3cccc(Br)c3)c2cc1OC`, 246 to 249 °C.

On to `O=C(O)CCOc1cccc2cccnc12`, for which the melting point was in the range of 211 to 213 °C. For `COc1ccc(OC)c(S(=O)(=O)n2c(COC(C)(C)C(=O)O)cc3nc(Cl)ccc32)c1` the value was 200 °C. With `CC(C)(C)C(NC(=O)c1ccc(Cl)cc1)NC(=NS(=O)(=O)c1ccccc1)Nc1cccnc1` (stereo not given) the figure was 196 to 197 °C; with `O=C(O)CN(CC(=O)O)C(=O)C(=O)c1ccc(OCCCCCCCCCCCCOc2ccccc2)cc1`, 130 to 132 °C. For `O=S(=O)(NCCO)c1cccc(-c2cc(-c3nc(-c4ccc(C(F)(F)F)cc4)cc(C(F)(F)F)n3)ccn2)c1` the value was 192 °C. `O=C(NCCCCc1ccc(-c2ccc(=O)[nH]n2)cc1)c1cccnc1` came in with a melting point of 190 to 191 °C. In turn, `O=C(CC(Cc1ccccc1)C(=O)O)c1ccc(Cl)cc1` (racemic) displayed a melting point of 137 to 138 °C. Regarding `CC(=O)Nc1nc2c(Oc3cc(N4CCN([C@H](C)c5ccc(F)cc5)CC4)ncn3)cccc2s1`, the melting point is 244 to 246 °C. In turn, `CCN(CC)CCNc1ccc(CO)c2sc3ccc(OC)cc3c(=O)c12` had a melting point of 103 to 105 °C. In the case of `CCC(=O)N[C@H]1CC[C@H](CCN2CCN(c3nccc4c3OCC4)CC2)CC1`, the melting point amounted to 196 °C. Compound `O=C(O)c1ccc(COc2ccc3cc(-c4ccc(-c5ccccc5)n4Cc4ccc(C(F)(F)F)cc4)ccc3c2)c(C(=O)O)c1` gave a melting point of 250 to 252 °C.

`CCOC(=O)N1CCN=C1CC(c1ccccc1)c1ccccc1` had a melting point of 78 to 80 °C. The compound `CC(=O)c1cc(S(=O)(=O)c2ccccc2)ccc1O` came in with a melting point of 156 to 157 °C. For `O=C(Cc1c[nH]c2ccccc12)NC1N=C(c2ccccc2)c2ccccc2NC1=O` (racemic) the value was 264 to 265 °C.

With `Nc1nccc(-c2c(-c3ccccc3)nn3ccccc23)n1`, the melting point was in the range of 222 to 223 °C. For `Cc1noc(NS(=O)(=O)c2cccc3cccnc23)c1Br` the value was 169 to 171 °C; for `CN(C)C(=O)Sc1ccc(Br)cc1C=O`, 118 to 120 °C; for `CNC(=S)C1=CC(CF)(CF)Oc2ccc(C(F)(F)C(F)(F)C(F)(F)F)cc21`, 125 to 126 °C. For `O=C(O)c1cc2cc(Br)ccc2nc1N[C@H](Cc1ccccc1)C(=O)O` the value was 140 to 141 °C.

For `CCCOc1nsnc1S(C)(=O)=O`, the melting point lay within 30 to 31 °C. The compound `COc1ccc(-c2ccc(C)c3occc23)cc1` showed a melting point of 40 to 41 °C. `CC(=O)N1CCC(=O)C(C(c2ccccc2)c2ccccc2)C1` (stereo not given) gave a melting point of 133 to 136 °C. For `O=C1NCN(c2ccccc2)C12CCN(CCCn1c(=O)[nH]c3cccc(Cl)c31)CC2` the value was 258 °C. As for `NC(=O)CCC(Nc1ccc2ccccc2n1)C(=O)O` (stereo not given), the melting point was 222 to 226 °C.

Take `COC(=O)Oc1ccc(N=C(C#N)c2ccccc2)cc1`: the melting point is 145 to 146 °C.

With `CN(C)CCCOc1ccc(C=CC(=O)N2CCc3c([nH]c4ccccc34)C2c2ccc3c(c2)CCO3)cc1` (stereo not given), the melting point turned out to be 186 °C.

`CC(=O)Nc1nc(CCc2ccc(CO)cc2)c(Cc2ccc(S(C)(=O)=O)cc2)s1`: the melting point was 210 to 211 °C. For `COc1ccc(C2(CCO)C=CC=CN2)cc1OC1CCCC1` (stereo not given) the value was 94 to 96 °C; for `CCc1ccc2c(C3=C(c4cn(C)c5ccccc45)C(=O)NC3=O)cn(C)c2c1`, 247 to 248 °C; for `CCC1c2c(ncn2CC)CCN1C(=O)NC(C)C` (stereo not given), 155 °C. For `C[C@H](NC(=O)OCc1ccccc1)C(=O)N1CCC[C@H]1C(=O)NC1CCCC1` the value was 118 to 119 °C. For `CC(C)CCS(=O)(=O)NC(=O)/C=C/c1cc(C2CC2)nn1Cc1ccc(C(F)(F)F)cc1Cl` the value was 145 to 147 °C; for `O=C1CCNC(=O)C1C(=O)c1ccc(Cl)c(Cl)c1` (stereo not given), 172 to 174 °C; for `CNCC(CNC(C)=O)c1cccc2ccc(OC)cc12` (stereo not given), 126 to 128 °C. Compound `Cc1csc2c(-c3ccccc3)c(-c3ccc(Cl)s3)c(CC(=O)O)n12` had a melting point of 182 to 183 °C. For the compound `Cc1c(CN(CCc2c(I)c3ccccc3n2C)C(=O)C(F)(F)F)ncn1S(=O)(=O)N(C)C`, the melting point fell in the range of 141 to 143 °C. With `Cc1cccc(NC(=O)N[C@H]2C[C@@](N)(C(=O)O)[C@@H]3[C@@H](C(=O)O)[C@@H]32)c1` (relative stereo), the melting point was above 250 °C.

With `CC(Cc1nc(-c2ccccc2)cc2ccccc12)C(=O)O` (stereo not given), the melting point was found to be 184 °C.

The compound `CC(C)Cn1c(C(=O)OC(C)(C)C)c(O)c2cc(OCc3ccccc3)ccc2c1=O` yielded a melting point of 133 to 134 °C. The compound `Nc1ccc(C(=O)Nc2ccccc2-c2nnn[nH]2)cc1` came in with a melting point of 202 to 204 °C. Compound `CCCCN(CCCC)c1ccc(C=C(S(C)(=O)=O)S(C)(=O)=O)cc1` returned a melting point of 114 to 115 °C.

Compound `C=CCN(CC=C)c1nc(NC(=O)c2ccco2)n2oc(=O)nc2n1` gave a melting point of 159 to 162 °C.

With `Clc1ccc(-c2cc[nH]c2)cc1`, the melting point fell in the range of 117 to 118 °C. Take `COc1cc(CCC(=O)Nc2cccc(C(=O)O)c2)ccc1O`: the melting point lay within 218 to 220 °C. Consider `CN1C=C2c3ccccc3Cc3ccccc3C2C1` (stereo not given), for which the melting point is 128 to 131 °C. With `CC1SC(=O)NN=C1c1ccc2c(c1)CCCN2C(=O)c1ccc2c(c1)OCO2` (single isomer, unassigned; (-)) the figure was 180 °C.

On to `O=C(OCc1ccccc1)[C@@H](Cc1ccccc1)NS(=O)(=O)c1ccc2ccccc2c1`, for which the melting point amounted to 107 °C. For the compound `COc1ccc(C#N)c(O)c1`, the melting point lay within 169 to 171 °C.

`CCCCCCCCCCCC(=O)c1ccc(CCOC(C)=O)cc1` came in with a melting point of 32 to 33 °C. With `Cc1ccc(S(=O)(=O)NCCN(C(=O)c2ccccc2C(=O)c2ccccc2)C(C)C)cc1`, the melting point fell in the range of 135 to 137 °C. Turning to `CCC(CC)Nc1c([N+](=O)[O-])cc(C(C)C)c(CSC#N)c1[N+](=O)[O-]`, the melting point was 68 to 70 °C. `COc1ccc(-c2cc(F)c(F)cc2-c2ccc(S(C)(=O)=O)cc2)cc1OC` yielded a melting point of 140 to 141 °C. `CC12CC(=O)C3C(CCC4CC(O)CCC43C)C1CCC2C(=O)COc1ccc([N+](=O)[O-])cc1` (stereo not given) yielded a melting point of 186 to 187 °C. With `COc1cc2ncnc(N3CCN(C(=O)NCc4ccc(F)cc4)CC3)c2cc1OC` the figure was 200 to 201 °C. With `C[C@@H](n1ncn(-c2ccc(-n3cncn3)cc2)c1=O)[C@](O)(Cn1cncn1)c1ccc(F)cc1F`, the melting point is 182 to 184 °C. For `Oc1ncccc1C1(O)CCN(CC23CC(c4ccccc42)c2ccccc23)CC1`, the melting point was 195 to 199 °C. For `CCOC1Oc2ccc3cc(C#N)c(Cn4cncn4)cc3c2C1(C)C` (stereo not given) the value was 128 to 129 °C. With `CC(C)NC(=O)c1c(NC(=O)c2cc(C(F)(F)F)nn2-c2ncccc2Cl)ccc2cn[nH]c12` the figure was 203 to 205 °C.
